Patent US8138145B2, “Hybrid oligomers, their preparation process and pharmaceutical compositions containing them” (Centre National de la Recherche Scientifique (SNRS), priority 2005, dated 2012)
Converted amounts (≈) assume the structure as drawn.

Legend:
Type in all cases: cell-based
[1] = test system: Escherichia Coli ATCC 25922; conditions: Mueller-Hinton broth, 37° C., 18 to 20 hours; for Minimal bactericidal concentration, Escherichia Coli ATCC 25922: plate counting on sheep blood agar
Procedure: (§1) Four strains were selected: Escherichia Coli ATCC 25922, Staphylococcus Aureus ATCC 25923, Pseudomonas Aeruginosa ATCC 27853 and a clinical isolated methicillin resistant Staphylococcus Aureus strain. Antibacterial activity of the molecules was tested by dilution method in Mueller-Hinton broth in order to determine the minimal inhibitory concentration (MIC) and the minimal bactericidal concentration (MBC). At least two independent assays were done. Stock solutions were obtained by solubilizing molecule powders in distilled water at concentration of 2.56 mg/mL and serial 2-fold diluted solutions were prepared. Bacterial inoculum was standardized by using direct suspensions of colonies from overnight growth in saline adjusted to a turbidity matching the 0.5 McFarland standard, and diluted to obtain a density comprised between 10^5 CFU/mL and 10^7 CFU/mL. Tubes containing 900 μL of inoculum with 100 μL of molecules solutions were incubated in air at 37° C. for 18 to 20 hours. Purity and inoculum density as well as percentage of viable bacteria in limpid tubes were checked by plate counting on sheep blood agar. Broth not containing any molecule solution was inoculated with each selected bacterial strain as a control for organism viability (growth control). The susceptibility of S. Aureus strains against vancomycin was used as an internal control as well as the activity of melittin.

[2] = test system: Pseudomonas Aeruginosa ATCC 27853; conditions: Mueller-Hinton broth, 37° C., 18 to 20 hours; for Minimal bactericidal concentration, Pseudomonas Aeruginosa ATCC 27853: plate counting on sheep blood agar
Procedure: as §1

[3] = test system: clinical isolated methicillin resistant Staphylococcus Aureus strain; test: microbe, parasite or virus in culture; conditions: Mueller-Hinton broth, 37° C., 18 to 20 hours; for Minimal bactericidal concentration, clinical isolated methicillin resistant Staphylococcus Aureus strain: plate counting on sheep blood agar
Procedure: as §1

[4] = test system: Staphylococcus Aureus ATCC 25923; test: microbe, parasite or virus in culture; conditions: for Minimal inhibitory concentration, Staphylococcus Aureus ATCC / Minimal bactericidal concentration, Staphylococcus Aureus ATCC: Mueller-Hinton broth, 37° C., 18 to 20 hours; for Minimal bactericidal concentration, Staphylococcus Aureus ATCC: plate counting on sheep blood agar
Procedure: as §1

Compound | Minimal bactericidal concentration, Escherichia Coli ATCC 25922 [1] [µg/mL] | Minimal inhibitory concentration, Pseudomonas Aeruginosa ATCC 27853 [2] [µg/mL] | Minimal bactericidal concentration, Pseudomonas Aeruginosa ATCC 27853 [2] [µg/mL] | Minimal inhibitory concentration, clinical isolated methicillin resistant Staphylococcus Aureus strain [3] [µg/mL] | Minimal bactericidal concentration, clinical isolated methicillin resistant Staphylococcus Aureus strain [3] [µg/mL] | Minimal inhibitory concentration, Escherichia Coli ATCC 25922 [1] [µg/mL] | Minimal inhibitory concentration, Staphylococcus Aureus ATCC [4] [µg/mL] | Minimal bactericidal concentration, Staphylococcus Aureus ATCC [4] [µg/mL] | MIC ([4]; Staphylococcus aureus, ATCC25923, read-out: Minimal inhibitory concentration, Staphylococcus Aureus ATCC) [µg/mL] | MIC ([3]; Staphylococcus aureus, read-out: Minimal inhibitory concentration, clinical isolated methicillin resistant Staphylococcus Aureus strain) [µg/mL]
CC[C@H](C)[C@H](NC(=O)CN)C(=O)NCC(=O)N[C@@H](C)C(=O)N[C@H](C(=O)N[C@@H](CC(C)C)C(=O)N[C@@H](CCCCN)C(=O)N[C@H](C(=O)N[C@@H](CC(C)C)C(=O)N[C@H](C(=O)N[C@H](C(=O)NCC(=O)N[C@@H](CC(C)C)C(=O)N1CCC[C@H]1C(=O)N[C@@H](C)C(=O)N[C@@H](CC(C)C)C(=O)N[C@H](C(=O)N[C@@H](CO)C(=O)N[C@@H](Cc1c[nH]c2ccccc12)C(=O)N[C@H](C(=O)N[C@@H](CCCCN)C(=O)N[C@@H](CCCNC(=N)N)C(=O)N[C@@H](CCCCN)C(=O)N[C@@H](CCCNC(=N)N)C(=O)N[C@@H](CCC(N)=O)C(=O)N[C@@H](CCC(N)=O)C(N)=O)[C@@H](C)CC)[C@@H](C)CC)[C@@H](C)O)[C@@H](C)O)C(C)C)C(C)C [mellitin, reference compound] | >256 | >256 | >256 | 32 (≈ 11.2 µM) | 128 (≈ 45 µM) |  |  |  |  | 
CC(C)NC(=O)N[C@H](CNC(=O)N[C@@H](CCCCN)CNC(=O)N[C@H](CNC(=O)N[C@H](CNC(=O)N[C@@H](CCCCN)CNC(=O)N[C@H](CNC(=O)N[C@@H](CCCCN)CNC(=O)N[C@H](CCC(N)=O)C(C)C)Cc1c[nH]c2ccccc12)C(C)C)Cc1c[nH]c2ccccc12)C(C)C [Mol-4] | 64 (≈ 46.1 µM) | 128 (≈ 92.2 µM) | 256 (≈ 184 µM) | 16 (≈ 11.5 µM) | 64 (≈ 46.1 µM) | 32 (≈ 23.1 µM) | 8 (≈ 5.76 µM) | <16 |  | 
CN[C@H](CC(C)C)C(=O)N[C@H]1C(=O)N[C@@H](CC(N)=O)C(=O)N[C@H]2C(=O)N[C@H]3C(=O)N[C@H](C(=O)N[C@H](C(=O)O)c4cc(O)cc(O)c4-c4cc3ccc4O)[C@H](O)c3ccc(c(Cl)c3)Oc3cc2cc(c3O[C@@H]2O[C@H](CO)[C@@H](O)[C@H](O)[C@H]2O[C@H]2C[C@](C)(N)[C@H](O)[C@H](C)O2)Oc2ccc(cc2Cl)[C@H]1O [vancomycin, reference compound] |  |  |  |  |  |  |  |  | 2 (≈ 1.38 µM) | 1 (≈ 0.69 µM)
CC(C)NC(=O)N[C@H](CNC(=O)N[C@@H](CCCCN)CNC(=O)N[C@H](CNC(=O)N[C@H](CNC(=O)N[C@@H](CCCCN)CNC(=O)N[C@H](CNC(=O)N[C@@H](CCCCN)CNC(N)=O)Cc1c[nH]c2ccccc12)C(C)C)Cc1c[nH]c2ccccc12)C(C)C [Mol-8] | 256 (≈ 203 µM) | 64 (≈ 50.8 µM) | >256 |  |  | 32 (≈ 25.4 µM) | 32 (≈ 25.4 µM) | 32 (≈ 25.4 µM) |  | 
